We go through 1 compound from patent publication US12661362B2, “Methods for the prevention and treatment of hearing loss” (Ting Therapeutics LLC, priority 2020, dated 2026).

Each structure is given as a SMILES string.

A short description of data set [1]: HPLC analysis of interaction between Niclosamide and Cisplatin in vitro. In kind it is physicochemical. The settings on record: ratios 1:1 and 1:10, 37° C. As for the experimental part: A simple explanation of Niclosamide's protection against CIHL is that it directly inactivates Cisplatin, similar to several otoprotectants in clinical trials (STS, ebselen, etc.). To investigate any possible interaction between Niclosamide and Cisplatin, we developed an HPLC method in vitro. The method may use the following: HPLC: Shimadzu Prominence-i LC-2030C, column: Agilent Eclipse Plus C18, PN-959961-902, 5% ACN, 95% water: 0-2 min; continuous increase of ACN to 95%: 2-12 min; hold at 95% ACN: 12-17 min; continuous decrease of ACN to 5%: 17-20 min, flow rate: 1 mL/min; Temperature 37° C., run time: 20 min. Additional parts of the method may use a stock solution of 1 mg/ml prepared in suitable solvent and mixed to create a ratio of cisplatin and niclosamide at 1:1 and 1:10 in the final injecting solution, along with the pure cisplatin and niclosamide. […] Our in vitro results are consistent with its synergistic interaction with Cisplatin in RCC xenograft models and its protection against noise injury.

The test system of a further data set is A549. The data set can be described thus: Survival of A549 cells with or without Cisplatin and Niclosamide. The settings on record: 10 nM. The data set is classed as cell-based. As for the experimental part:
Now referring to FIG. 8, In vitro model of […] incubated with or without Cisplatin and 10 nM of Niclosamide. Cells were maintained in culture with the aid of Matrigel as previously described in Kelley and Driver, Curr. Protoc. Neurosci. Ch.(4); Unit(4); 34.1-10 (2010). After cells had been in culture for 1 d, growth medium DMEM (12430-054; GIB CO Life Technologies, with 1% FBS [16000-044; GIB CO Life Technologies] and 50 μg/ml ampicillin) with or without test compounds may be added for preincubation for 1 hr. at 37° C. in 5% Co2, and may be followed by incubation with 50 μM Cisplatin (479306; Sigma-Aldrich) with or without the test compound in growth medium for 24 hr. at 37° C. A Cisplatin concentration of 50 μM may be used for the explant assay due to its consistent showing of decreases outer hair cells by about −40% in the mouse cochlea after 24 hours. Cochlea may be fixed in 4% PFA and stained for actin with Alex Fluor 568 phalloidin to determine the viability of the HCs. Cochlea may also be stained by DAPI, FM1-43 dye uptake, and immunohistochemical staining for known HC markers (including parvalbumin and myosin 7a. Cochlea may be imaged by confocal microscopy. Two 160-μm regions from middle turns may be photographed, and the number of intact HCs can be counted.

The conditions of data set [2]: following 2,000 mg oral use; cited from earlier work.
The next data set has as its system ggcsh. The data set can be described thus: Expression of nrf2 downstream gene ggcsh in zebrafish. In kind it is in vivo. The settings on record: 0.002-1.48 μM, 6 hours. As to the method:
Additionally to FIGS. 6A-6B, but not shown, 5 dpf zebrafish were incubated for 6 hours with vehicle, niclosamide (2 nM to 1.48 μM) and the nrf2 pathway activator […] (DEM) as a positive control, in order to evaluate the effect of niclosamide on ggcsh, a nrf2 downstream target. Ggcsh was previously validated as a Nrf2 downstream target in zebrafish. (Sheets, 2017). Following incubation, the total RNA was isolated from whole fish and processed to measure the induced expression of nrf2 downstream gene ggcsh. […] Additionally, Nrf2a morpholinos morphlinos were prepared, followed by incubation of the zebrafish morphants with cisplatin and/or niclosamide. Zebrafish eggs were injected with 4.5 ng of scrambled morpholino or nrf2a morpholino (5′-[…] SEQ NO: 1). At 3 dpf non-injected and morphant animals were exposed to vehicle, cisplatin (300 μM), cisplatin+niclosamide 18.3 nM or niclosamide alone for 6 hours. Following 1-hour recovery, animals were fixed and processed for immunohistochemistry. Nrf2a KD was confirmed by analyzing expression of Glutathione S-transferase P1 (gstp1), a downstream target, due to lack of proper antibody to detect Nrf2 protein in zebrafish.

Take `O=C(Nc1ccc([N+](=O)[O-])cc1Cl)c1cc(Cl)ccc1O` [Niclosamide, 5-chloro-N-(2-chloro-4-nitrophenyl)-2-hydroxy-benzamide]: the “chemical interaction with Cisplatin (third HPLC peak)” value in data set [1] is “no interaction between Niclosamide and Cisplatin”. Moreover, in the data set on A549, the “effect on Cisplatin-tumor killing activity” value was “did not affect Cisplatin-tumor killing activity”. The Cmax in data set [2] was 18 µM. For the same compound, in the data set on ggcsh, the expression of ggcsh result was “significantly lowered”.

Usually Cmax stands for the maximum level reached in the sampled fluid or tissue.
